Where two headings read alike, the source gives them in different places.
Legend:
Test in all cases: KinomeScan kinase panel, single concentration 10 µM
Type in all cases: binding
KinomeScan kinase panel [1] = target: T1, KinomeScan kinase panel (Homo sapiens, UniProt O14976); conditions: GAK, 10 µM; read-out: score (%)
T1 construct: purchased DiscoveRx (KinomeScan)
T1 sequence (O14976 1-1311): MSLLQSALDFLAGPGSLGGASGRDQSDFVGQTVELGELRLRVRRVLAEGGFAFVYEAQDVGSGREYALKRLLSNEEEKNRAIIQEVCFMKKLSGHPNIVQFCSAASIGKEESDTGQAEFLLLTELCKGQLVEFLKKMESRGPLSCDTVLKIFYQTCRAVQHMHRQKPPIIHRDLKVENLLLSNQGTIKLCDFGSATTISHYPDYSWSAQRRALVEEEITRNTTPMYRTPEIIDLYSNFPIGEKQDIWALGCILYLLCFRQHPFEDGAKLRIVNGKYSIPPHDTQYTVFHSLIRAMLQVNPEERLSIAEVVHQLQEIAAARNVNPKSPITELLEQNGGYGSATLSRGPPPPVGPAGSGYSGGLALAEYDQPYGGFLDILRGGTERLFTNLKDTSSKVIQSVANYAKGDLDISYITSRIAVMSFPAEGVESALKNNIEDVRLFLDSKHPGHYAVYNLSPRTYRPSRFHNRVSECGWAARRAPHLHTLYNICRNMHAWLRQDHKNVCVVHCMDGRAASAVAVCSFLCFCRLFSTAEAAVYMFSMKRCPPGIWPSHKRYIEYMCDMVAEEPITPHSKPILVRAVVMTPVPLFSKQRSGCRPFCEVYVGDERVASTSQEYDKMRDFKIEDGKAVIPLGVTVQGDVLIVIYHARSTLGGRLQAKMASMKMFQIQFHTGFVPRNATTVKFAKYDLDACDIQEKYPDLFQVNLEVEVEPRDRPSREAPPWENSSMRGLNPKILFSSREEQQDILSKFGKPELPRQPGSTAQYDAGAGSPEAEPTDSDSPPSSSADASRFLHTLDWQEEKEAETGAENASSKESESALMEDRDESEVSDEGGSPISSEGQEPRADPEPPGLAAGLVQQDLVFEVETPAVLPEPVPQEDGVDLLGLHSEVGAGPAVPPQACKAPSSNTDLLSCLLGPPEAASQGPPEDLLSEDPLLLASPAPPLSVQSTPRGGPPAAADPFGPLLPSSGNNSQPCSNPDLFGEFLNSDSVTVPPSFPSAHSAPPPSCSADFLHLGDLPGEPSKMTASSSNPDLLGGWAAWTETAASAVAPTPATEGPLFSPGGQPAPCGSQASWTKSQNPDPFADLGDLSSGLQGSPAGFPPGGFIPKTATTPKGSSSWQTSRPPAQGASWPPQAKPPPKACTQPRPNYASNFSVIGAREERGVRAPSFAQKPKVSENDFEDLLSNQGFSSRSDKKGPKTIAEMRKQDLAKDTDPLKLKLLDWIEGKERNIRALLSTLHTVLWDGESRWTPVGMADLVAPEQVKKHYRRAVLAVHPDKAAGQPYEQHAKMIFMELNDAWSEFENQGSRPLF

KinomeScan kinase panel [2] = target: T2, KinomeScan kinase panel (Homo sapiens, UniProt O75116); conditions: read-out: score (%)
T2 construct: purchased DiscoveRx (KinomeScan)
T2 sequence (O75116 whole entry): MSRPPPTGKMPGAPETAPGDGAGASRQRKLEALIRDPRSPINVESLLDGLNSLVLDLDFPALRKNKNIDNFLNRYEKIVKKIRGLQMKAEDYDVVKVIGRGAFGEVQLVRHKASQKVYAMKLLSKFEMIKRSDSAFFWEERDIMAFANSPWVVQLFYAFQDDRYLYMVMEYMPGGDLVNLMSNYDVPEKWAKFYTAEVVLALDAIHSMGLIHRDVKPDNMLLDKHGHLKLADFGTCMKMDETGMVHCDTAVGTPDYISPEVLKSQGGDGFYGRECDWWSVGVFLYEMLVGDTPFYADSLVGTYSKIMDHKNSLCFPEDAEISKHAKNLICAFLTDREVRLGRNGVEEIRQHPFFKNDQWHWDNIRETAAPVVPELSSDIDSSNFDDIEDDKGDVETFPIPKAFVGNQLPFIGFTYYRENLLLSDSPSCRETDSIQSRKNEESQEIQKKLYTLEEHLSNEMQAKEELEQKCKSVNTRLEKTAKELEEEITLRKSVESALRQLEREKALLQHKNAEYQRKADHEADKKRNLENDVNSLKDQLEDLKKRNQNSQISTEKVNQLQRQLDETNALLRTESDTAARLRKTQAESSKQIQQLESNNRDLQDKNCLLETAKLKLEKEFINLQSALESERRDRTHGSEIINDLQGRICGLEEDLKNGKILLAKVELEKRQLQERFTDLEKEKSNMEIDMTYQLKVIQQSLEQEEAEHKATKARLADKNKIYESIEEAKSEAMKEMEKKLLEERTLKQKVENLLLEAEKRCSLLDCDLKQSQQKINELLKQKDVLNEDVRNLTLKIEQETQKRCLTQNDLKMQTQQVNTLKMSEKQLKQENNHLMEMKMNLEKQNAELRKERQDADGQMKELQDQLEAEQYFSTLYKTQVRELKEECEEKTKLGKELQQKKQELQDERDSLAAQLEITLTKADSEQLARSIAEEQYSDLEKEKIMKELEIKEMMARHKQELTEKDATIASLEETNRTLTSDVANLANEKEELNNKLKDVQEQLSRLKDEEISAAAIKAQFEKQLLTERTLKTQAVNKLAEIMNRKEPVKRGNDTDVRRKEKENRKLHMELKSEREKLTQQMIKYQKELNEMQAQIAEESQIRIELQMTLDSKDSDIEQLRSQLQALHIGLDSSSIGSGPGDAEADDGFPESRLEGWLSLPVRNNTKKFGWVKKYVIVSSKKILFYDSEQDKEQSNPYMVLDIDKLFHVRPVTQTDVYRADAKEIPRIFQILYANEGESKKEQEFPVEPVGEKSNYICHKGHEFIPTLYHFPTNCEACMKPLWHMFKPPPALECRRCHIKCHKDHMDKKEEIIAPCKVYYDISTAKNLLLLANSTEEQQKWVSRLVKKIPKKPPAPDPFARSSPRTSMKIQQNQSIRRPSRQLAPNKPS

KinomeScan kinase panel [3] = target: T3, KinomeScan kinase panel (Homo sapiens, UniProt O94804); conditions: LOK, 10 µM
T3 construct: purchased DiscoveRx (KinomeScan)
T3 sequence (O94804 whole entry): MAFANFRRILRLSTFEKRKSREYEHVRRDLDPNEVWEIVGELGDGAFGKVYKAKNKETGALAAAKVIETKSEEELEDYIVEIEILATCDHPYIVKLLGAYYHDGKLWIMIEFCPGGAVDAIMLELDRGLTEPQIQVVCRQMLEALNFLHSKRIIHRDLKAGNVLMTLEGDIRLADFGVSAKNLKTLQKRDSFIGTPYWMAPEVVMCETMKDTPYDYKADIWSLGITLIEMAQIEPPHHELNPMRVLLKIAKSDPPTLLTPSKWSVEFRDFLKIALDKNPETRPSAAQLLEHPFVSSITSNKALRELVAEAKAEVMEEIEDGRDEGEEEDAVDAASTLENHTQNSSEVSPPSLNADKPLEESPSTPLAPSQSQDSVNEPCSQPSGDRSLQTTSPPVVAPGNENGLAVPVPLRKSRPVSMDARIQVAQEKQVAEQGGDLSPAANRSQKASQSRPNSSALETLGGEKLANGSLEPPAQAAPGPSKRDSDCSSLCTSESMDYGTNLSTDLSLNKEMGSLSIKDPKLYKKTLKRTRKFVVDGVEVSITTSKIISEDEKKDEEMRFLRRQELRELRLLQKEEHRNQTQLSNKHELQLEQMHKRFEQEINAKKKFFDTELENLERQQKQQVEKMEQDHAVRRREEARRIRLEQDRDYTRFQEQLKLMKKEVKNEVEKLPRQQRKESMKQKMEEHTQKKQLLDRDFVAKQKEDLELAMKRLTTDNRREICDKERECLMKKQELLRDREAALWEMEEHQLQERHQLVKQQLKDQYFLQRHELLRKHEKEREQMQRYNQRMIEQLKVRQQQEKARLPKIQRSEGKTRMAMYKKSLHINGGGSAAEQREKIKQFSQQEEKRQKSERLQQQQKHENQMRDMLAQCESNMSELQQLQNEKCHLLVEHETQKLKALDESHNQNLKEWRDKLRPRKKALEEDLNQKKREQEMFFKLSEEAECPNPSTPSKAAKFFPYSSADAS

KinomeScan kinase panel [4] = target: T4, KinomeScan kinase panel (Homo sapiens, UniProt Q16584); conditions: MLK3, 10 µM
T4 construct: purchased DiscoveRx (KinomeScan)
T4 sequence (Q16584 whole entry): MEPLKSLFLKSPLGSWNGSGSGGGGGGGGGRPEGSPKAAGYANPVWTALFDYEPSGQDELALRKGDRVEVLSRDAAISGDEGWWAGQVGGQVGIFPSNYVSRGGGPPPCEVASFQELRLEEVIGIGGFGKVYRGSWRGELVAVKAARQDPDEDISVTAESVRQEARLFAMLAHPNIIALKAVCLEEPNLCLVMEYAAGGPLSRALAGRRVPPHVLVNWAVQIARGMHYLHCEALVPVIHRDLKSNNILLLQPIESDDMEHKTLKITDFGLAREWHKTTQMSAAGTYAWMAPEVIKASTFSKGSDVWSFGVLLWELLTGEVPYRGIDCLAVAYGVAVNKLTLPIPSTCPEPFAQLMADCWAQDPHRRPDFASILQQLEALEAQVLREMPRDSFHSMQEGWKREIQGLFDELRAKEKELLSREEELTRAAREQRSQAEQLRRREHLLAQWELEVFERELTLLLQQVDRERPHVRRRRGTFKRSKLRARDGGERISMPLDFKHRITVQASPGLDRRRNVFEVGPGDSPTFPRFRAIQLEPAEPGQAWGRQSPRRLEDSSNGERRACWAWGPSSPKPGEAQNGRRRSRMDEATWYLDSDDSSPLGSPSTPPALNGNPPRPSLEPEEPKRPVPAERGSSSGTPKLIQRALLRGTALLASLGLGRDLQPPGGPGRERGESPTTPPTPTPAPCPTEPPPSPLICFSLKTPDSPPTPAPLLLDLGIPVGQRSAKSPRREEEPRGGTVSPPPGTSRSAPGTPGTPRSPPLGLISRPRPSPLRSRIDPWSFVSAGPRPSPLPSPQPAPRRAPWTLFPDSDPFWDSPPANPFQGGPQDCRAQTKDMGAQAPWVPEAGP

KinomeScan kinase panel [5] = target: T5, KinomeScan kinase panel (Homo sapiens, UniProt Q96PY6); conditions: NEK1, 10 µM; read-out: score (%)
T5 construct: purchased DiscoveRx (KinomeScan)
T5 sequence (Q96PY6 1-1258): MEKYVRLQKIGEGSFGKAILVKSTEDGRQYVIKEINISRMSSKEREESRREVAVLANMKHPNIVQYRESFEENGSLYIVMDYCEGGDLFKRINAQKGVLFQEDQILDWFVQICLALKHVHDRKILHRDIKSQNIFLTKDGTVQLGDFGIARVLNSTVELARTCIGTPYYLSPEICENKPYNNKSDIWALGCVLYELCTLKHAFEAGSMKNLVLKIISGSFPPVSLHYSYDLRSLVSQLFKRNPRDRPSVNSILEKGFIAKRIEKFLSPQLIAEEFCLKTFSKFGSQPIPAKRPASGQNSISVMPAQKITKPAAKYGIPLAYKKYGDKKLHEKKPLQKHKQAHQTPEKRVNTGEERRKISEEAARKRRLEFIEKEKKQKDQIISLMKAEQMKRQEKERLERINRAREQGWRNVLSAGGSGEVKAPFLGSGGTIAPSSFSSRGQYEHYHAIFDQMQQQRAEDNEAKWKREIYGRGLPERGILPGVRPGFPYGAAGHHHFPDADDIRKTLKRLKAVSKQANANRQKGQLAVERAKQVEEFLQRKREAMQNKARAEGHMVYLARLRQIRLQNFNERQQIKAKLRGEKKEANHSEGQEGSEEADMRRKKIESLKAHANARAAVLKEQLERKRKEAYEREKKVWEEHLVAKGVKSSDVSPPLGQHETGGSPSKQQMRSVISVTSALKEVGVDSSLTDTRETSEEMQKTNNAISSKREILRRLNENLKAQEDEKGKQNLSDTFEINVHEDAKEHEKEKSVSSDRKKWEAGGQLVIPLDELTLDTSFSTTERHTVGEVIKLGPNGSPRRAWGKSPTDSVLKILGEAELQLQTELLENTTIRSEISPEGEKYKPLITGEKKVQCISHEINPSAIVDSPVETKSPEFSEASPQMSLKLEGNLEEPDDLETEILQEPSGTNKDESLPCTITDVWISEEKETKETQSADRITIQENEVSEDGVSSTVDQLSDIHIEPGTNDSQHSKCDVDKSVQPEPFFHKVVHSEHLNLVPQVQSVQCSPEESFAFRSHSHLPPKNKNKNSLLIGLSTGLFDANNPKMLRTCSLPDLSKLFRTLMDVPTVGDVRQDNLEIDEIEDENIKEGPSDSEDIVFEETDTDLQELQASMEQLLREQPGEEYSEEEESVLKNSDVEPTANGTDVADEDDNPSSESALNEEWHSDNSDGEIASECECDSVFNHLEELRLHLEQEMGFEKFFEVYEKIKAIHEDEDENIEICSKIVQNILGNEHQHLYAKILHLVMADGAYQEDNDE

KinomeScan kinase panel [6] = target: T6, KinomeScan kinase panel (Homo sapiens, UniProt Q9P0L2); conditions: MARK1, 10 µM; read-out: score (%)
T6 construct: purchased DiscoveRx (KinomeScan)
T6 sequence (Q9P0L2 whole entry): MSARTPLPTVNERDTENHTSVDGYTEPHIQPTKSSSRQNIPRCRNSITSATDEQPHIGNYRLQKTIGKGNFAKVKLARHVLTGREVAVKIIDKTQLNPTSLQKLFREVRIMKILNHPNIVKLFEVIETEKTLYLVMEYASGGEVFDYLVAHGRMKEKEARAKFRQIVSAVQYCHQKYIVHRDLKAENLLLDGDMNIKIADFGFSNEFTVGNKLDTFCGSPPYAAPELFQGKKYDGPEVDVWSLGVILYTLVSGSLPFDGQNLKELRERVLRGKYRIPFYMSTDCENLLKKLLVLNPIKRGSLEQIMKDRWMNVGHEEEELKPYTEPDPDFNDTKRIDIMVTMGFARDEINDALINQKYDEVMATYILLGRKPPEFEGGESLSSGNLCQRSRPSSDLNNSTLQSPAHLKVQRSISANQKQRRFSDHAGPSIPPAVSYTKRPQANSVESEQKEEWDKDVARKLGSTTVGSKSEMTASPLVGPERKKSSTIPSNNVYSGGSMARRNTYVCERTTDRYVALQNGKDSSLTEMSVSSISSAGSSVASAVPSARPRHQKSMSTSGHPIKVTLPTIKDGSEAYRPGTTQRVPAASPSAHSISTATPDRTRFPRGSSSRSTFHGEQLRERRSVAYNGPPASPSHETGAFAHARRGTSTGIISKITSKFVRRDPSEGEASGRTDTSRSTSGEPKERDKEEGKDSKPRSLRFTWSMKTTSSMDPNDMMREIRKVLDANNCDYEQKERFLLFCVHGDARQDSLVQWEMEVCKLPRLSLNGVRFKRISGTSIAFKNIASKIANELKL

| SMILES | remaining binding at 10 µM (KinomeScan kinase panel [1]) | remaining binding at 10 µM (KinomeScan kinase panel [2]; ROCK2, 10 µM) | score (%) (KinomeScan kinase panel [3]) | score (%) (KinomeScan kinase panel [4]) | remaining binding at 10 µM (KinomeScan kinase panel [5]) | remaining binding at 10 µM (KinomeScan kinase panel [6]) | remaining binding at 10 µM (KinomeScan kinase panel [2]; kinase ROCK2, 10 µM) |
| --- | --- | --- | --- | --- | --- | --- | --- |
| CCN1CCN(Cc2ccc(NC(=O)c3ccc(C)c(NC(=O)c4cncc(-c5cccs5)c4)c3)cc2C(F)(F)F)CC1 [ALW-II-41-27] | 1.6% | 18% | 0.05% | nb (Hits values higher than 30% were considered negative (no binding: nb)) | > 30% | > 30% |  |
| CCN1CCN(Cc2ccc(NC(=O)c3ccc(C)c(C#Cc4cccnc4)c3)cc2C(F)(F)F)CC1 [XMD15-44] | 7.4% |  | 0% | 17% | > 30% | > 30% | 19% |
| CCN1CCN(Cc2ccc(NC(=O)c3ccc(C)c(/C=C/c4cnc5[nH]ccc5c4Cl)c3)cc2C(F)(F)F)CC1 [HG-6-63-01, (E)-3-(2-(4-chloro-1H-pyrrolo[2,3-b]pyridin-5-yl)vinyl)-N-(4-((4-ethylpiperazin-1-yl)methyl)-3-(trifluoromethyl)phenyl)-4-methylbenzamide] | 4.3% | > 30% | 0% | 0.8% | > 30% | > 30% |  |

Reference: PMC4457528, “Identification of Novel Small Molecule Inhibitors of Oncogenic RET Kinase” (PLoS ONE, 2015)
